Read-outs that look alike come from different tables or passages of the source. Marks after values point to notes of the source that are not given here.
Key:
[1] = in vivo
Method: Maximum tolerable doses (MTD) of arglabin and derivatives were determined by daily intraperitoneal administration to rats, guinea pigs or mice and daily intravenous administration to rabbits over a period of five to 20 days.

immune system = assay: Immune system modulation in intact mice; assay type: in vivo
Sarcoma-37 = assay: Inhibition of tumor growth in implanted tumors; assay type: in vivo, mice and rats; details: dose 30 mg/kg
[2] = tested on: Pliss Lymphosarcoma resistant to prospidine; assay: Inhibition of growth of resistant tumour strains; duration of life and metastasis; assay type: in vivo, rats
stage IV cancer = assay: Second clinical trial, 72 patients; assay type: in vivo, human
Description: A three to six month lag in dimethylaminoarglabin hydrochloride production halted the first clinical trial. […] Among the patients, 25% had carcinoma of the stomach, 16.7% had liver cancer, 18.1% had lung cancer and the remaining 40.2% had esophageal, breast, ovarian, pancreatic, brain or lymphosarcoma. Patients with poorer states had metastases to the liver (25%), retroperitoneal lymph nodes (25), ascites (22.2%) and exudative pleuritis (11.1%).

Geren's carcinosarcoma = assay: Inhibition of tumor growth in implanted tumors; assay type: in vivo, mice and rats
M-1 Sarcoma = assay: Inhibition of tumor growth in implanted tumors; assay type: in vivo, mice and rats; details: dose 30 mg/kg
[3] = Ability to keep normal activities, minimum signs of the disease
[4] = Maintains themself, but is not able to work
[5] = Needs occasional assistance, but is able to maintain themself
[6] = Normal activities are hardly performable, some signs of the disease

CC1=CCC23OC2(C)CCC2C(CN(C)C)C(=O)OC2C13.Cl (centres unmarked) [Dimethylaminoarglabin hydrochloride]
maximum dosage (MTD) ([1]; guinea pig): 45 mg/kg | maximum dosage (MTD) ([1]; mouse): 30 mg/kg | maximum dosage (MTD) ([1]; rabbit): 20 mg/kg | maximum dosage (MTD) ([1]; rat): 50 mg/kg | hemagglutination titer (immune system; 100 mg/kg IP): slight decrease | hemagglutination test index (immune system; repeated IP 30 mg/kg, day 10): decreased | hemagglutination titers (immune system; repeated IP 10 and 20 mg/kg, days 5 and 10): increased | delayed-type hypersensitivity reaction (immune system; repeated IP, day 5): No effect | delayed-type hypersensitivity reaction (immune system; repeated IP, day 10): increased by day 10 | delayed-type hypersensitivity reaction (immune system; single 50 mg/kg IP): did not alter | hemagglutination titer (immune system; single 50 mg/kg IP): did not alter | Inhibition of Tumour Growth, % - Sarcoma-37 (Sarcoma-37): 78.2* % | Inhibition of Tumour Strains Growth, % - Resistant Forms - Pliss Lymphosarcoma to prospidine ([2]; dose 30 mg/kg): 62.3% | Inhibition of Tumour Strains Growth, % - Resistant Forms - Pliss Lymphosarcoma to prospidine ([2]; dose 50 mg/kg): 87.4*** % | patients with no response (stage IV cancer; 8 of 72): 11.1% | patients responded to therapy (stage IV cancer; 64 of 72): 88.9% | % of Patients - Absence of dynamics or stabilization (stage IV cancer; 72 patients): 31.9% | % of Patients - Partial regression over or equal to 50% decrease of tumor or metastasis (stage IV cancer; 72 patients): 61.1% | % of Patients - Progression (stage IV cancer; 72 patients): 7.0% | Number of Patients % - Karnofsky scale 90 (stage IV cancer; [3]): 41.7% | Number of Patients abs, N - Karnofsky scale 90 (stage IV cancer; [3]): 30 | Thrombocytes, mean index of peripheral blood (stage IV cancer; After Treatment (before treatment 2.0)): 2.8 thsd | Erythrocytes, mean index of peripheral blood (stage IV cancer; After Treatment (before treatment 2.3-3.0)): 3.0 10^12/l-10^9/l | Leukocytes, mean index of peripheral blood (stage IV cancer; After Treatment (before treatment 4.5-5.5)): 4.0 10^12/l-10^9/l | Lymphocytes, mean index of peripheral blood (stage IV cancer; After Treatment (before treatment 8-15)): 15-20 | Thrombocytes, mean index of peripheral blood (stage IV cancer; During Treatment (before treatment 2.0)): 2.3 thsd | Erythrocytes, mean index of peripheral blood (stage IV cancer; During Treatment (before treatment 2.3-3.0)): 2.4-3.0 10^12/l-10^9/l | Leukocytes, mean index of peripheral blood (stage IV cancer; During Treatment (before treatment 4.5-5.5)): 3.5-4.0 10^12/l-10^9/l | Lymphocytes, mean index of peripheral blood (stage IV cancer; During Treatment (before treatment 8-15)): 28-35 | Number of Patients % - Karnofsky scale 30 (stage IV cancer; Extreme invalidism): 4.2% | Number of Patients abs, N - Karnofsky scale 30 (stage IV cancer; Extreme invalidism): 3 | Number of Patients % - Karnofsky scale 70 (stage IV cancer; [4]): 33.3% | Number of Patients abs, N - Karnofsky scale 70 (stage IV cancer; [4]): 24 | Number of Patients % - Karnofsky scale 60 (stage IV cancer; [5]): 6.9% | Number of Patients abs, N - Karnofsky scale 60 (stage IV cancer; [5]): 5 | Number of Patients % - Karnofsky scale 80 (stage IV cancer; [6]): 13.9% | Number of Patients abs, N - Karnofsky scale 80 (stage IV cancer; [6]): 10 | side effects (stage IV cancer; patients, hydrochloride): No side effects | Inhibition of Tumour Growth, % - Geren's carcinosarcoma (Geren's carcinosarcoma; dose 30 mg/kg): 80.1% | Inhibition of Tumour Growth, % - Geren's carcinosarcoma (Geren's carcinosarcoma; dose 50 mg/kg): 83.3* % | Inhibition of Tumour Growth, % - M-1 Sarcoma (M-1 Sarcoma): 83.5** %

Source: US6770673B1, “Therapeutic uses of arglabin in combination with other chemotherapy agents” (priority 1997, dated 2004)
